{"source": "patent EP0336976A1", "about": "“PHARMACEUTICAL PREPARATION FOR CURING MULTIPLE SCLEROSIS AND LATERAL A[…]” (VSESOJUZNY KARDIOLOGICHESKY NAUCHNY TSENTR AKADEMII …, priority 1987, dated 1989)", "key": {"[1]": {"system": "Patienten mit zerebrospinaler Form der multiplen Sklerose", "test": "Clinical trial in multiple sclerosis patients: neurological status scored in points (Kurtzke scale: neurological deficit and progression/disability scale), on top of basic therapy", "assay_type": "in vivo, Menschen", "protocol": "Das erfindungsgemässe Präparat für die Behandlung der multiplen Sklerose und der myotrophischen Lateralsklerose wurde in einer Klinik an Menschen erprobt.\nBei der multiplen Sklerose erfolgte die Behandlung mit dem angemeldeten Präparat unter Anwendung der Basistherapie, die die Vitamine der B-Gruppe, Glutaminsäure, Nikotinsäure, Zerebrolysin, Midokalm, und Essentiale einschliesst. Das erfindungsgemässe Präparat wurde den Patienten intramuskulär zu je I bis 5 mg des Wirkstoffes, der in I ml einer physiologischen Lösung aufgelöst wird, zweimal pro Tag innerhalb von 5 Tagen eingeführt.\nBei der Behandlung der multiplen Sklerose wurde die Wirkung des erfindungsgemässen Präparates mit der Wirkung von T-Aktivin verglichen, das unter Anwendung der gleichen wie bei der Behandlung mit dem angemeldeten Präparat Basistherapie eingeführt wurde. Das T-Aktivin führte man den Patienten intramuskulär einmal pro Tag zu je I ml I,0%iger Lösung innerhalb von 5 Tagen ein. Nach einer 7-tägigen Unterbrechung führte man das T-Aktivin in der gleichen dosis während 2 Tage ein.\n(§1) Bei der Behandlung der multiplen Sklerose mit dem erfindungsgemässen Präparat und mit T-Aktivin verwendete man neben einer klinischen Analyse der neurologischen Symptome auch eine Methode der Registrierung von kurzlatenten erzeugten Hörpotentialen auf die akustische Stimulation. Die Dynamik der neurologischen Symptome bewertete man in Punkten nach der Kurzkschen Skale. Man führt die Analyse der Punkten-Summe nach der Skale des neurologischen Defizits durch sowie nach der Skale der Invalidisierung (sich verschlimmernde Entwicklung) unter Berücksichtigung der sozialen Adaptation des jeweiligen Patienten durch. Bei der Untersuchung der kurzlatenten erzeugten Hörpotentiale erfolgte die Summierung von 3000 Antworten und es wurden 7 Komponenten registriert, die den funktionellen Zustand folgender Pegel eines Höranalysators widerspiegeln: I - Schneke des Hörnervs, II -Kerne des Cochlearkomplexes, III- Nucleus der oberen Olive, IV - Nucleus der lateralen Schleife, V - Kerne der Höcker der Vierhügelplatte, VI - Kerne mittlerer Kniehöcker, VII - Kerne Auditus kortex. Alle Komponenten wurden nach den Werten der Zwischenpeakintervalle und den Relationen der Peakamplituden analysiert. Die Kontrollgruppe für die Untersuchung der kurzlatenten erzeugten Hörpotentiale bildeten I2 praktisch gesunde Personen.\n(§2) Die Untersuchung der Patienten erfolgte vor der Verordnung der Präparate, in 5 und in I4 Tagen nach dem Beginn ihrer Verabreichung.\nHervorzuheben ist, dass bei den Patienten, denen das erfindungsgemässe Präparat und das T-Aktivin verordnet wurden, innnerhalb der letzten zwei Monate keine Dynamik im neurologischen Status nachgewiesen wurde. Das gab die Möglichkeit, die Verbesserung des Zustandes als Effekt von der Verordnung der Präparate zu betrachten.\nDie Hauptgruppe der Patienten, die das erfindungsgemässe Präparat verabreicht bekamen, bestand aus 24 Personen (6 Männer und I8 Frauen) im alter von 20 bis 49 Jahren mit zerebrospinaler Form der multiplen Sklerose. Die Dauer der Erkrankung betrug von 2 bis 7 Jahren. Das erfindungsgemässe Präparat führe man den Patienten intramuskulär zu je I bis 2 mg zweimal am Tage innerhalb von 5 Tagen ein. Die Gruppe der Patienten, die das T-Aktivin bekam, bestand aus I4 Personen (6 Männer und 8 Frauen) im Alter von 23 bis 47 Jahren mit zerebrospinaler Form der multiplen Sklerose. Die Dauer der Erkrankung betrug von 2 bis 7 Jahren.\nDas T-Aktivin führte man den patienten intramuskulär zu je I ml 0,I%iger Lösung einmal pro Tag innerhalb von 5 Tagen ein. […]\nBei der Einlieferung ins Krankenhaus wurden dem Patienten Vitamine BI und B₆, Glutaminsäure, innerhalb eines Monates Zerebrolysin verabreicht, durchgeführt wurden kurze Kuren mit Midokalm und Essentiale. […]"}, "[2]": {"system": "Leitungsbahnen des Hirnstammes", "test": "Recording of short-latency auditory evoked potentials on acoustic stimulation in multiple sclerosis patients", "assay_type": "in vivo, Menschen", "conditions": "MS patients", "description": "as §1, §2\nDie Hauptgruppe der Patienten, die das erfindungsgemässe Präparat verabreicht bekamen, bestand aus 24 Personen (6 Männer und I8 Frauen) im alter von 20 bis 49 Jahren mit zerebrospinaler Form der multiplen Sklerose. Die Dauer der Erkrankung betrug von 2 bis 7 Jahren. Das erfindungsgemässe Präparat führe man den Patienten intramuskulär zu je I bis 2 mg zweimal am Tage innerhalb von 5 Tagen ein. Die Gruppe der Patienten, die das T-Aktivin bekam, bestand aus I4 Personen (6 Männer und 8 Frauen) im Alter von 23 bis 47 Jahren mit zerebrospinaler Form der multiplen Sklerose. Die Dauer der Erkrankung betrug von 2 bis 7 Jahren. […]"}, "[3]": {"system": "Patienten mit amyotrophischen Lateralsklerose", "test": "Clinical trial in amyotrophic lateral sclerosis patients: course of the disease, on top of conventional nonspecific therapy", "assay_type": "in vivo, Menschen", "conditions": "ALS"}, "Toxicity (LD50)": {"test": "Toxicity (LD50)", "conditions": "in vivo; species and route not given; read-out: LD₅₀"}, "[4]": {"conditions": "patients with sekundärer Verschlimmerung, effect mainly am I5. Tag"}, "[5]": {"conditions": "patients: Leichter Grad, Am I5. Tag"}, "[6]": {"conditions": "patients: Remittierend, a) Verschlimmerung, Am I5. Tag"}, "[7]": {"conditions": "of 62 patients, listed as Präparat + Nichtspezifische Therapie"}, "[8]": {"conditions": "of 62 patients, pronounced plus moderate improvement"}}, "note": "Where a SMILES comes first, the peptide text is derived from it. [ ]: non-standard residue; d: D form."}
{"compound": "CC(C)C[C@H](NC(=O)[C@H](Cc1ccccc1)NC(=O)CNC(=O)[C@@H](C)NC(=O)[C@@H](N)Cc1ccc(O)cc1)C(=O)N[C@@H](CCCNC(=N)N)C(=O)O", "note": "[erfindungsgemässe Präparat, Tyr-D-Ala-Gly-Phe-Leu-Arg] (H-Y[dA]GFLR-OH)", "values": [{"measurement": "Punkte nach der Skale der sich verschlimmernden Entwicklung", "setting": "[1]; Beispiel I, Patientin K., 46 years, progredient MS, after 5 days of I mg twice daily, before treatment 6", "value": 4}, {"measurement": "klinische Verbesserung, Anteil der Patienten", "setting": "[1]; MS patients, whole group, after the course of treatment", "value": 89, "unit": "%"}, {"measurement": "Verringerung der Summe der Punkte nach der Skale des neurologischen Defizits", "setting": "[1]; patients with mittlerem Schweregrad, am 6. Tag", "value": "4,3 Punkte"}, {"measurement": "Senkung des Indexes nach der Skale der sich verschlimmernden Entwicklung", "setting": "[1]; [4]", "value": "2,4 Punkte"}, {"measurement": "Verringerung der Summe der Punkte nach der Skale des neurologischen Defizits", "setting": "[1]; [4]", "value": "6,3 Punkte"}, {"measurement": "Gesamtpunktenzahl nach der Skala des neurologischen Defizits", "setting": "[1]; [5]", "value": "8,6±0,9 Punkte"}, {"measurement": "Index nach der Skala der sich verschlimmernden Entwicklung", "setting": "[1]; [5]", "value": "2,8±0,5 Punkte"}, {"measurement": "Index nach der Skala der sich verschlimmernden Entwicklung", "setting": "[1]; patients: Leichter Grad, Vor der Behandlung (baseline)", "value": "3,7±0,4 Punkte"}, {"measurement": "Index nach der Skala der sich verschlimmernden Entwicklung", "setting": "[1]; patients: Mittlerer Grad, Am 6. Tag", "value": "4,9±0,3 Punkte"}, {"measurement": "Index nach der Skala der sich verschlimmernden Entwicklung", "setting": "[1]; patients: Mittlerer Grad, Am I5. Tag", "value": "4,4±0,6 Punkte"}, {"measurement": "Index nach der Skala der sich verschlimmernden Entwicklung", "setting": "[1]; patients: Remittierend, a) Verschlimmerung, Am 6. Tag", "value": 3, "unit": "Punkte"}, {"measurement": "Gesamtpunktenzahl nach der Skala des neurologischen Defizits", "setting": "[1]; [6]", "value": 5, "unit": "Punkte"}, {"measurement": "Index nach der Skala der sich verschlimmernden Entwicklung", "setting": "[1]; [6]", "value": 2, "unit": "Punkte"}, {"measurement": "Index nach der Skala der sich verschlimmernden Entwicklung", "setting": "[1]; patients: Remittierend, a) Verschlimmerung, Vor der Behandlung (baseline)", "value": 5, "unit": "Punkte"}, {"measurement": "Index nach der Skala der sich verschlimmernden Entwicklung", "setting": "[1]; patients: Remittierend, b) Remission, Am 6. Tag", "value": "3,3±0,5 Punkte"}, {"measurement": "Index nach der Skala der sich verschlimmernden Entwicklung", "setting": "[1]; patients: Remittierend, b) Remission, Am I5. Tag", "value": "3,4±0,5 Punkte"}, {"measurement": "Index nach der Skala der sich verschlimmernden Entwicklung", "setting": "[1]; patients: Remittierend, b) Remission, Vor der Behandlung (baseline)", "value": "4,3±0,8 Punkte"}, {"measurement": "Index nach der Skala der sich verschlimmernden Entwicklung", "setting": "[1]; patients: Remittierend, c) sekundäre Verschlimmerung, Am 6. Tag", "value": "4,8±2,0 Punkte"}, {"measurement": "Index nach der Skala der sich verschlimmernden Entwicklung", "setting": "[1]; patients: Remittierend, c) sekundäre Verschlimmerung, Am I5. Tag", "value": "3,5±0,4 Punkte"}, {"measurement": "Verringerung des Index nach der Skale der Weiterentwicklung der Krankheit", "setting": "[1]; single patient in acute state of MS, zum I5. Tag", "value": 3, "unit": "Punkte"}, {"measurement": "Verringerung der Summe der Punkte nach der Skale des neurologischen Defizits", "setting": "[1]; whole group, in 5 Tagen nach dem Beginn der Behandlung", "value": "2,9 Punkte"}, {"measurement": "Verringerung der Summe der Punkte nach der Skale des neurologischen Defizits", "setting": "[1]; whole group, in I4 Tagen nach dem Beginn der Behandlung", "value": "3,8 Punkte"}, {"measurement": "Differenzen der Latenzwerte III Peak-I Peak", "setting": "[2]; Am 6. Tag", "value": "2,22±0,05"}, {"measurement": "Differenzen der Latenzwerte III Peak-I Peak", "setting": "[2]; Am I5. Tag", "value": "2,20±0,06"}, {"measurement": "Verhältnis der Amplituden V Peak - I Peak", "setting": "[2]; Am I5. Tag", "value": "0,88±0,23"}, {"measurement": "Verbesserung Ausgeprägt, number of patients", "setting": "[3]; of 62 patients", "value": 8}, {"measurement": "Verbesserung Mässig, number of patients", "setting": "[3]; of 62 patients", "value": 16}, {"measurement": "Verbesserung Mässig, share of patients", "setting": "[3]; of 62 patients", "value": 26, "unit": "%"}, {"measurement": "keine Anzeichen einer sich verschlimmernden Entwicklung (stabiler Zustand oder Verbesserung), share of patients", "setting": "[3]; of 62 patients", "value": 84, "unit": "%"}, {"measurement": "Sich verschlimmernde Entwicklung, number of patients", "setting": "[3]; [7]", "value": 10}, {"measurement": "Sich verschlimmernde Entwicklung, share of patients", "setting": "[3]; [7]", "value": 16, "unit": "%"}, {"measurement": "Verbesserung Ausgeprägt, share of patients", "setting": "[3]; [7]", "value": 13, "unit": "%"}, {"measurement": "Verbesserung des Zustandes, number of patients", "setting": "[3]; [8]", "value": 24, "unit": "Personen"}, {"measurement": "Verbesserung des Zustandes, share of patients", "setting": "[3]; [8]", "value": 39, "unit": "%"}, {"measurement": "Fehlen der Dynamik, number of patients", "setting": "[3]; of 62 patients, stable state", "value": 28}, {"measurement": "Fehlen der Dynamik, share of patients", "setting": "[3]; of 62 patients, stable state", "value": 45, "unit": "%"}, {"measurement": "keine Anzeichen einer sich verschlimmernden Entwicklung, number of patients", "setting": "[3]; of 62 patients, stable state or improvement", "value": 52, "unit": "Personen"}, {"measurement": "sich verschlimmernde Entwicklung seltener im Vergleich zur Kontrollgruppe", "setting": "[3]; preparation plus conventional therapy vs conventional therapy alone", "value": "4,8 fache"}, {"measurement": "Parese in den Füssen", "setting": "[3]; Beispiel 3, Patient, two 2-week courses of I mg i.m. twice daily, at admission 2 Punkte", "value": 0, "unit": "Punkte"}, {"measurement": "Paresegrad in proximalen Abschnitten von Beinen und Armen", "setting": "[3]; Beispiel 4, Patient E., 4I years, two 2-week courses of 2 mg i.m. twice daily", "value": 0, "unit": "Punkte"}, {"measurement": "Parese der Extremitäten", "setting": "[3]; Beispiel 5, Patient M., second stay, two 2-week courses of I mg i.m. twice daily", "value": 0, "unit": "Punkte"}, {"measurement": "LD50", "setting": "Toxicity (LD50)", "value": 520, "unit": "mg/kg"}]}
